System: patients with fasting triglyceride levels ≥500 mg/dL
Test: Lipoprotein particle concentration by NMR spectroscopy in the clinical study
Type: in vivo, human
Settings: for IDL particle concentration, median change from baseline / Large HDL particle concentration, median change from baseline / Large LDL particle concentration, median change from baseline / Large VLDL particle concentration, median change from baseline / Medium HDL particle concentration, median change from baseline / Medium VLDL particle concentration, median change from baseline / Small HDL particle concentration, median change from baseline / Small LDL particle concentration, median change from baseline / Small VLDL particle concentration, median change from baseline / Total HDL particle concentration, median change from baseline / Total LDL particle concentration, median change from baseline / Total VLDL particle concentration, median change from baseline: baseline to study end; for IDL particle concentration, end-of-treatment value (median) / Large HDL particle concentration, end-of-treatment value (median) / Large LDL particle concentration, end-of-treatment value (median) / Large VLDL particle concentration, end-of-treatment value (median) / Medium HDL particle concentration, end-of-treatment value (median) / Medium VLDL particle concentration, end-of-treatment value (median) / Small HDL particle concentration, end-of-treatment value (median) / Small LDL particle concentration, end-of-treatment value (median) / Small VLDL particle concentration, end-of-treatment value (median) / Total HDL particle concentration, end-of-treatment value (median) / Total LDL particle concentration, end-of-treatment value (median) / Total VLDL particle concentration, end-of-treatment value (median): study end
Description: Lipoprotein particle concentrations and sizes were measured with nuclear magnetic resonance spectroscopy in the above described clinical trial. Lipoprotein particle size and concentration parameters were obtained from fasting blood samples. Lipoprotein particle size and concentrations are measured by nuclear magnetic resonance (NMR) spectroscopy at LipoScience, Inc. (Raleigh, N.C.) using the LipoProfile-3 algorithm. VLDL, LDL, and HDL subclasses of different size were quantified from the amplitudes of their spectroscopically-distinct lipid methyl group NMR signals.
Concentrations of the following subclasses of lipoproteins were analyzed in this study: small LDL (18.0-20.5 nm), large LDL (20.5-23.0 nm), intermediate-density lipoprotein (IDL; 23.0-29.0 nm), large high-density lipoprotein (HDL; 9.4-14.0 nm), medium HDL (8.2-9.4 nm), small HDL (7.3-8.2 nm), large very-low-density lipoprotein (VLDL; >60 nm), medium VLDL (42-60 nm), and small VLDL (29-42 nm).
Subjects with missing baseline or Week 12 measurements, due to either missing laboratory samples or un-reportable values, were excluded from this analysis. The median difference of each lipoprotein particle variable (percent change from baseline) between each AMR101 treatment group and the placebo group was evaluated with a nonparametric test using the Hodges-Lehmann medians of the differences between treatment groups and the Wilcoxon rank-sum test (significance level 0.05). All statistical analyses were carried out using SAS 9.2 software.

[1] = 2 g/day vs placebo, Hodges-Lehmann median
[2] = 4 g/day vs placebo, Hodges-Lehmann median
[3] = 4 g/day vs placebo, stated as reduction

## CC/C=C\C/C=C\C/C=C\C/C=C\C/C=C\CCCC(=O)OCC [AMR101, ethyl eicosapentaenoate]
[1]
  Small LDL particle concentration, placebo-adjusted median percent change from baseline: −12.8%
  Total HDL particle concentration, placebo-adjusted median percent change from baseline: −3.0%
  Total LDL particle concentration, placebo-adjusted median percent change from baseline: −1.1%
2 g/day vs placebo, stated as reduction
  Reduction of small LDL particle concentration: 12.8%
2 g/day, n = 63
  IDL particle concentration, median change from baseline: 0.8%
  Large HDL particle concentration, median change from baseline: −1.6%
  Large LDL particle concentration, median change from baseline: −20.9%
  Large VLDL particle concentration, median change from baseline: −2.5%
  Medium HDL particle concentration, median change from baseline: 3.9%
  Medium VLDL particle concentration, median change from baseline: 18.8%
  Small HDL particle concentration, median change from baseline: −3.2%
  Small LDL particle concentration, median change from baseline: 9.5%
  Small VLDL particle concentration, median change from baseline: 11.5%
  Total HDL particle concentration, median change from baseline: −3.3%
  Total LDL particle concentration, median change from baseline: 12.6%
  Total VLDL particle concentration, median change from baseline: 13.1%
  IDL particle concentration, end-of-treatment value (median): 144.0 nmol/L
  Large HDL particle concentration, end-of-treatment value (median): 2.3 µmol/L
  Large LDL particle concentration, end-of-treatment value (median): 51.0 nmol/L
  Large VLDL particle concentration, end-of-treatment value (median): 29.9 nmol/L
  Medium HDL particle concentration, end-of-treatment value (median): 8.7 µmol/L
  Medium VLDL particle concentration, end-of-treatment value (median): 93.8 nmol/L
  Small HDL particle concentration, end-of-treatment value (median): 21.5 µmol/L
  Small LDL particle concentration, end-of-treatment value (median): 1100 nmol/L
  Small VLDL particle concentration, end-of-treatment value (median): 53.9 nmol/L
  Total HDL particle concentration, end-of-treatment value (median): 33.4 µmol/L
  Total LDL particle concentration, end-of-treatment value (median): 1464 nmol/L
  Total VLDL particle concentration, end-of-treatment value (median): 190.1 nmol/L
[2]
  Large VLDL particle concentration, placebo-adjusted median percent change from baseline: −27.9%
  Small LDL particle concentration, placebo-adjusted median percent change from baseline: −25.6%
  Small VLDL particle concentration, placebo-adjusted median percent change from baseline: 5.3%
  Total HDL particle concentration, placebo-adjusted median percent change from baseline: −7.4%
  Total LDL particle concentration, placebo-adjusted median percent change from baseline: −16.3%
[3]
  Reduction of small LDL particle concentration: 25.6%
  Reduction of total LDL particle concentration (IDL, small LDL and large LDL particles): 16.3%
4 g/day, n = 61
  IDL particle concentration, median change from baseline: 19.2%
  Large HDL particle concentration, median change from baseline: 8.3%
  Large LDL particle concentration, median change from baseline: −32.3%
  Large VLDL particle concentration, median change from baseline: −24.5%
  Medium HDL particle concentration, median change from baseline: −18.3%
  Medium VLDL particle concentration, median change from baseline: 36.4%
  Small HDL particle concentration, median change from baseline: −5.1%
  Small LDL particle concentration, median change from baseline: −9.7%
  Small VLDL particle concentration, median change from baseline: 4.3%
  Total HDL particle concentration, median change from baseline: −7.1%
  Total LDL particle concentration, median change from baseline: −0.1%
  Total VLDL particle concentration, median change from baseline: 15.2%
  IDL particle concentration, end-of-treatment value (median): 185.0 nmol/L
  Large HDL particle concentration, end-of-treatment value (median): 2.3 µmol/L
  Large LDL particle concentration, end-of-treatment value (median): 64.0 nmol/L
  Large VLDL particle concentration, end-of-treatment value (median): 21.2 nmol/L
  Medium HDL particle concentration, end-of-treatment value (median): 8.4 µmol/L
  Medium VLDL particle concentration, end-of-treatment value (median): 106.8 nmol/L
  Small HDL particle concentration, end-of-treatment value (median): 21.6 µmol/L
  Small LDL particle concentration, end-of-treatment value (median): 998.0 nmol/L
  Small VLDL particle concentration, end-of-treatment value (median): 52.5 nmol/L
  Total HDL particle concentration, end-of-treatment value (median): 30.8 µmol/L
  Total LDL particle concentration, end-of-treatment value (median): 1419 nmol/L
  Total VLDL particle concentration, end-of-treatment value (median): 200.3 nmol/L

— US11291643B2, “Methods of treating hypertriglyceridemia” (Amarin Pharmaceuticals Ireland Limited, priority 2011, dated 2022)
